Data as given in patent US20170190671A1, “BIS(ARYL)CATECHOL DERIVATIVES AS HERBICIDES” (E I DU PONT DE NEMOURS AND COMPANY, priority 2014, published 2017).

What was measured:
Assay in all cases: Test C postemergence
Type in all cases: in vivo
[1] = test system: yellow nutsedge (Cyperus esculentus); settings: Cyperus, post-emergence, 336 h, Postemergence, scale 0 to 100, read-out: Plant response rating, Nutsedge, Yellow
Outline: (§1)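 Visual ratings (0 none to 100 complete control) were made 13 to 15 days after treatment, relative to controls. Test chemicals, formulated in a non-phytotoxic solvent mixture with surfactant, were applied in the greenhouse preemergence to seeded loam-sand soil or postemergence to plants 2 to 18 cm tall.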

[2] = test system: oilseed rape (Brassica napus); settings: Brassica napus, post-emergence, Postemergence, scale 0 to 100, read-out: Plant response rating, Oilseed Rape
Outline: as §1

[3] = test system: wild oat (Avena fatua); settings: Avena fatua, post-emergence, Postemergence, scale 0 to 100, read-out: Plant response rating, Oat, Wild
Outline: as §1

[4] = test system: chickweed (common chickweed, Stellaria media); settings: Stellaria media, post-emergence, Postemergence, scale 0 to 100, read-out: Plant response rating, Chickweed
Outline: as §1

[5] = test system: lambsquarters (Chenopodium album); settings: Chenopodium album, post-emergence, 336 h, Postemergence, scale 0 to 100, read-out: Plant response rating, Lambsquarters
Outline: as §1

[6] = test system: soybean (Glycine max); settings: Glycine max, post-emergence, Postemergence, scale 0 to 100, read-out: Plant response rating, Soybean
Outline: as §1

[7] = test system: ragweed (common ragweed, Ambrosia elatior); settings: Ambrosia artemisiifolia, post-emergence, 336 h, Postemergence, scale 0 to 100, read-out: Plant response rating, Ragweed
Outline: as §1

[8] = test system: pigweed (Amaranthus retroflexus); settings: Amaranthus retroflexus, post-emergence, 336 h, Postemergence, scale 0 to 100, read-out: Plant response rating, Pigweed
Outline: as §1

[9] = test system: johnsongrass (Sorghum halepense); settings: Sorghum halepense, post-emergence, 336 h, Postemergence, scale 0 to 100, read-out: Plant response rating, Johnsongrass
Outline: as §1

[10] = test system: barnyardgrass (Echinochloa crus-galli); settings: Echinochloa crus-galli, post-emergence, Postemergence, scale 0 to 100, read-out: Plant response rating, Barnyardgrass
Outline: as §1

[11] = test system: corn (Zea mays); settings: Zea mays, post-emergence, 336 h, Postemergence, scale 0 to 100
Outline: as §1

[12] = test system: giant foxtail (Setaria faberii); settings: Setaria faberi, post-emergence, 336 h, Postemergence, scale 0 to 100, read-out: Plant response rating, Foxtail, Giant
Outline: as §1

[13] = test system: waterhemp (common waterhemp, Amaranthus rudis); settings: Amaranthus tuberculatus, post-emergence, Postemergence, scale 0 to 100, read-out: Plant response rating, Waterhemp
Outline: as §1

[14] = test system: Italian ryegrass (Lolium multiflorum); settings: Lolium multiflorum, post-emergence, 336 h, Postemergence, scale 0 to 100, read-out: Plant response rating, Ryegrass, Italian
Outline: as §1

[15] = test system: blackgrass (Alopecurus myosuroides); settings: Alopecurus myosuroides, post-emergence, 336 h, Postemergence, scale 0 to 100, read-out: Plant response rating, Blackgrass
Outline: as §1

## Fc1cnc(Oc2c(Cl)cccc2Oc2ncc(Cl)cn2)nc1 [Compound 18, 5-chloro-2-[5-chloro-6-[(5-fluoro-2-pyrimidinyl)oxy]phenoxy]pyrimidine]
[1]; 31 g ai/ha
  pest or weed control at 31 g/ha: 5%
[1]; 62 g ai/ha
  pest or weed control at 62 g/ha: 10%
[1]; 125 g ai/ha
  pest or weed control at 125 g/ha: 10%
[1]; 250 g ai/ha
  pest or weed control at 250 g/ha: 10%
[2]; 31 g ai/ha
  plant injury at 31 g/ha: 20%
[2]; 62 g ai/ha
  plant injury at 62 g/ha: 35%
[2]; 125 g ai/ha
  plant injury at 125 g/ha: 50%
[2]; 250 g ai/ha
  plant injury at 250 g/ha: 80%
[3]; 31 g ai/ha
  pest or weed control at 31 g/ha: 0%
[3]; 62 g ai/ha
  pest or weed control at 62 g/ha: 0%
[3]; 125 g ai/ha
  pest or weed control at 125 g/ha: 5%
[3]; 250 g ai/ha
  pest or weed control at 250 g/ha: 30%
[4]; 31 g ai/ha
  pest or weed control at 31 g/ha: 50%
[4]; 62 g ai/ha
  pest or weed control at 62 g/ha: 55%
[4]; 125 g ai/ha
  pest or weed control at 125 g/ha: 80%
[4]; 250 g ai/ha
  pest or weed control at 250 g/ha: 95%
[5]; 31 g ai/ha
  pest or weed control at 31 g/ha: 65%
[5]; 62 g ai/ha
  pest or weed control at 62 g/ha: 90%
[5]; 125 g ai/ha
  pest or weed control at 125 g/ha: 95%
[5]; 250 g ai/ha
  pest or weed control at 250 g/ha: 95%
[6]; 31 g ai/ha
  plant injury at 31 g/ha: 75%
[6]; 62 g ai/ha
  plant injury at 62 g/ha: 85%
[6]; 125 g ai/ha
  plant injury at 125 g/ha: 90%
[6]; 250 g ai/ha
  plant injury at 250 g/ha: 95%
[7]; 31 g ai/ha
  pest or weed control at 31 g/ha: 65%
[7]; 62 g ai/ha
  pest or weed control at 62 g/ha: 75%
[7]; 125 g ai/ha
  pest or weed control at 125 g/ha: 90%
[7]; 250 g ai/ha
  pest or weed control at 250 g/ha: 95%
[8]; 31 g ai/ha
  pest or weed control at 31 g/ha: 80%
[8]; 62 g ai/ha
  pest or weed control at 62 g/ha: 90%
[8]; 125 g ai/ha
  pest or weed control at 125 g/ha: 95%
[8]; 250 g ai/ha
  pest or weed control at 250 g/ha: 98%
[9]; 31 g ai/ha
  pest or weed control at 31 g/ha: 5%
[9]; 62 g ai/ha
  pest or weed control at 62 g/ha: 10%
[9]; 125 g ai/ha
  pest or weed control at 125 g/ha: 5%
[9]; 250 g ai/ha
  pest or weed control at 250 g/ha: 10%
[10]; 31 g ai/ha
  pest or weed control at 31 g/ha: 5%
[10]; 62 g ai/ha
  pest or weed control at 62 g/ha: 5%
[10]; 125 g ai/ha
  pest or weed control at 125 g/ha: 5%
[10]; 250 g ai/ha
  pest or weed control at 250 g/ha: 10%
[11]; 31 g ai/ha
  Corn plant response rating (crop injury, 0 = no effect, 100 = complete kill) at 31 g/ha: 5%
[11]; 62 g ai/ha
  Corn plant response rating (crop injury, 0 = no effect, 100 = complete kill) at 62 g/ha: 5%
[11]; 125 g ai/ha
  Corn plant response rating (crop injury, 0 = no effect, 100 = complete kill) at 125 g/ha: 20%
[11]; 250 g ai/ha
  Corn plant response rating (crop injury, 0 = no effect, 100 = complete kill) at 250 g/ha: 55%
[12]; 31 g ai/ha
  pest or weed control at 31 g/ha: 15%
[12]; 62 g ai/ha
  pest or weed control at 62 g/ha: 5%
[12]; 125 g ai/ha
  pest or weed control at 125 g/ha: 25%
[12]; 250 g ai/ha
  pest or weed control at 250 g/ha: 45%
[13]; 31 g ai/ha
  pest or weed control at 31 g/ha: 80%
[13]; 62 g ai/ha
  pest or weed control at 62 g/ha: 85%
[13]; 125 g ai/ha
  pest or weed control at 125 g/ha: 95%
[13]; 250 g ai/ha
  pest or weed control at 250 g/ha: 98%
[14]; 31 g ai/ha
  pest or weed control at 31 g/ha: 0%
[14]; 62 g ai/ha
  pest or weed control at 62 g/ha: 0%
[14]; 125 g ai/ha
  pest or weed control at 125 g/ha: 0%
[14]; 250 g ai/ha
  pest or weed control at 250 g/ha: 40%
[15]; 31 g ai/ha
  pest or weed control at 31 g/ha: 0%
[15]; 62 g ai/ha
  pest or weed control at 62 g/ha: 5%
[15]; 125 g ai/ha
  pest or weed control at 125 g/ha: 5%
[15]; 250 g ai/ha
  pest or weed control at 250 g/ha: 45%
